Measurements from patent publication US20020103172A1, “VITAMIN D3 DERIVATIVES” (priority 1996, published 2002).
Where two headings read alike, the source gives them in different places.

What was measured:
[1] = system: calcium metabolism; settings: rat, in vivo
Procedure: (§1) The calcemic activity of the compounds was determined in rats in vivo, as previously described (Binderup, L., Bramm, E., Biochem. Pharmacol. 37, 889-895 (1988)).

[2] = system: mouse spleen lymphocytes; experiment: Mixed lymphocyte reaction assay (MLR), allogeneic stimulation, 3H-thymidine incorporation; format: cell-based; settings: for MLR rel.: ratio between IC50 of 1,25(OH)2D3 and IC50 of the compound, 72 hours incubation, 3H-thymidine incorporation, value >1 = more active than 1,25(OH)2D3
Procedure: An in vitro assay for the rating of test compounds for immunosuppressive potency is the mixed lymphocyte reaction assay, “MLR”, measuring the allogeneic stimulation of mouse spleen lymphocytes: lymphocytes, obtained from the spleens of BALB/c and CB6F1 mice, are stimulated by co-cultivating 5×10^6/ml cells from BALB/c mice (responders) with 7.5×10^6/ml cells from CB6F1 mice (inducers). The mixed cultures of lymphocytes are incubated with the test compounds for 72 hours. Cellular DNA-synthesis is assessed by the incorporation of ^3H-thymidine in the DNA.

[3] = system: HaCaT, a spontaneously immortalized, non-tumorigenic human skin keratinocyte cell line; experiment: HaCaT antiproliferative assay measuring 3H-thymidine uptake; format: cell-based; settings: for HaCaT rel.: ratio between IC50 of 1,25(OH)2D3 and IC50 of the compound, 50% inhibition of 3H-thymidine incorporation, value >1 = more active than 1,25(OH)2D3; for potency in the HaCaT-assay (psoriasis model), in words: compared with 1,25(OH)2D3
Text: A useful assay for the rating of test compounds for antiproliferative activity in skin cells, e.g. antipsoriatic effect, is the in vitro assay using HaCaT, a spontaneously immortalized, non-tumorigenic human skin keratinocyte cell line (Mørk Hansen, C. et al., J. Invest. Dermatol. 1, 44-48 (1996)), measuring ^3H -thymidine uptake.

[4] = system: calcium metabolism; experiment: Calcemic activity in rats in vivo; settings: calcemic activity relative to 1,25(OH)2D3, low values preferred
Procedure: as §1

Row | SMILES | Calc. rel. [1] | MLR rel. [2] | HaCaT rel. [3] | immunosuppressive activity (MLR), in words [2] | Calc. rel. [4] | potency in the HaCaT-assay (psoriasis model), in words [3]
1 | C=C1/C(=C\C=C2/CCC[C@]3(C)[C@@H]([C@H](C)CCCC(C)(C)O)CC[C@@H]23)C[C@@H](O)C[C@@H]1O [1,25, 1α,25-dihydroxy-vitamin D3, reference compound] | 1 | 1 | 1 | – | – | –
2 | C=C1C(=CC=C2CCCC3(C)C(C(C)CCCCC(O)(CC)CC)=CCC23)CC(O)CC1O [Compound 107, 1(S),3(R)-Dihydroxy-20(R)-(5-ethyl-5-hydroxyhept-1-yl)-9,10-seco-oregna-5(Z),7(E),10(19),16-tetraene] | – | 5 | 43 | potent effects | 0.54 | considerably more potent than 1,25(OH)2D3
3 | C=C1C(=CC=C2CCCC3(C)C(C(C)C=CC=CC(O)(CC)CC)=CCC23)CC(O)CC1O [Compound 111, 1(S),3(R)-Dihydroxy-20(R)-(5-ethyl-5-hydroxyhepta-1(E),3(E)-dien-1-yl)-9,10-seco-pregna-5(Z),7(E),10(19)16-tetraene] | – | 6.5 | 51 | potent effects | 1.47 | considerably more potent than 1,25(OH)2D3
